# Measurements published in patent US10857201B2, “NNIF and nNIF-related peptides and related methods” (UNIVERSITY OF UTAH RESEARCH FOUNDATION, priority 2016, dated 2020).
# Assays:
# [1] = test system: PMN phagocytosis; test: Phagocytosis of fluorescently labeled E. coli bioparticles; type: cell-based, human; settings: 4 hour incubation, peptides 1 nM
# Experimental: FIG. 6C is a graph depicting phagocytosis of fluorescently-labeled E. coli bioparticles that were measured by microscopy after a 4 hour incubation. Treatment with cytochalasin B and D served as a control for inhibition of phagocytosis. Student's t test, *P<0.05.
# PMNs were isolated from blood of healthy adult donors and resuspended in M-199 at a concentration of 2×10^6 cells/mL. Leukocytes were pre-incubated for 60 minutes under standard conditions with cytochalasin D and B (10 μM), nNIF (1 nM), CRISPP (1 nM), or CRISPP-SCR (1 nM). Following pre-incubation, PMNs were incubated with 6×10^6 E. coli bioparticles (MOLECULAR PROBES®) on a rotator for 4 hours at 37° C. in 5% […] air. The PMNs were then washed and resuspended in the starting volume of M-199 before being spun down onto glass coverslips and fixed with 2% p-FA for 10 minutes and permeabilized with 0.1% Triton-X-100 for 10 minutes. Leukocytes were stained with WGA 555 (INVITROGEN™) and TO-PRO®-3 (MOLECULAR PROBES®), and randomly selected high-power visual field images were captured using confocal microscopy. IMAGEJ™ software (NIH) was used to determine the percentage of PMNs that were positive for fluorescently labeled E. coli bioparticles detected at 488 nm.
# [2] = molecular target: T1, recombinant PAD4 (Homo sapiens, UniProt Q9UM07); test: Cell-free PAD4 deimination assay; type: biochemical; settings: for PAD4 activity: cell-free, synthetic substrate, nNIF 1 nM, Cl-amidine 10 μM; for order of potency of inhibition of PAD4: initial comparison of NRPs
# T1 construct: purchased CAYMAN
# Experimental: One way ANOVA with Tukey's post hoc testing, ***P<0.001.
# nNIF inhibition of PAD4 activity was determined using a PAD4 inhibitor screening assay kit (CAYMAN™). Briefly, nNIF (1 nM) was incubated with recombinant PAD4 and PAD4 enzyme substrate (2 mM) in PAD4 assay reagent for 30 minutes at 37° C. […] The reaction was stopped with PAD4 Stop Solution and detected using an included ammonia detector assay. Ammonia detector fluorescence was measured at 470 nm following excitation at 405 nm on a SPECTRAMAX™ M5 fluorescence plate reader (MOLECULAR DEVICES™).
# [3] = test system: NET formation in E. coli peritonitis; test: Mouse model of E. coli peritonitis (in vivo NET formation); settings: for NET formation by peritoneal fluid PMNs / deployment of NETs on the peritoneal surface / number of PMNs in peritoneal fluid: C57BL/6 mice, 3 hours; for NET formation by peritoneal fluid PMNs / deployment of NETs on the peritoneal surface: 10 mg/kg i.p. 1 hour before E. coli i.p.; for number of PMNs in peritoneal fluid: E. coli i.p.; for peritoneal NET formation: Swiss Webster mice infected with E. coli
# Source text: FIG. 8A depicts results of peritoneal fluid NET formation (red fluorescence, yellow arrow) assessed by live cell imaging (60× magnification, scale bar=50 μm) and histone H3 release (red dashed line=baseline arbitrarily set at 1). Three mice per group. One way ANOVA with Tukey's post hoc testing, ***P<0.001 for CRISPP and nNIF versus CRISPP-SCR.
# FIG. 8B depicts results of NET formation on the surfaces of peritoneal membranes (red fluorescence, yellow arrows) that was quantified by counting the number of NETs that crossed standardized grid lines in […] (60× magnification; scale bar=50 μm) using IMAGEJ™ software. A second experiment yielded a similar pattern. FIGS. 8A and 8B depict C57BL/6 mice that were not pretreated or pretreated with nNIF, CRISPP, or CRISPP-SCR (10 mg/kg i.p.; 1 hour) and were inoculated with E. coli (4.5×10^7 bacteria i.p.). After 3 hours, the animals were sacrificed, and peritoneal fluid (FIG. 8A) and membranes (FIG. 8B) were collected for analysis.
# FIG. 8C depicts C57BL/6 mice that were not pretreated (left two bars) or that were pretreated with CRISPP, nNIF, or CRISPP-SCR, and that were inoculated with E. coli i.p. as in FIGS. 8A and 8B. Neutrophil numbers in peritoneal fluid were counted after 3 hours (3-5 mice/group). […]
# FIG. 8E depicts peritoneal fluid NET formation, imaged and measured as in FIG. 8A (10 mice/group). *P<0.05 for CRISPP/E. coli and nNIF/E. coli compared to CRISPP-SCR/E. coli and E. coli.
# FIG. 8F depicts NET formation on peritoneal membrane surfaces, imaged and quantitated as in FIG. 8B (3 mice in each group). *P<0.05 for E. coli versus control (red dashed line); **P<0.01 for CRISPP-SCR/E. coli versus control; †P<0.05 for CRISPP/E. coli and nNIF/E. coli versus CRISPP-SCR/E. coli. One way ANOVA with Tukey's post-hoc testing applied in FIGS. 8E and 8F. In FIGS. 8E and 8F, Swiss-Webster mice that were not pretreated or that were pretreated with nNIF, CRISPP, or CRISPP-SCR were inoculated with E. coli i.p. as in FIGS. 8A and 8B. After 3 hours, peritoneal fluid and membranes were collected. FIGS. 8A-8F indicate that nNIF and CRISPP inhibit in vivo NET formation.
# C57/BL6 or Swiss-Webster mice were pretreated in blinded fashion with CRISPP (10 mg/kg), nNIF (10 mg/kg), or CRISPP-SCR (10 mg/kg) by i.p. injection 1 hour prior to infection (E. coli, 4.5×10^7 cfu/mouse, i.p.) or inoculation (LPS, 25 mg/kg, i.p.) (SIGMA-ALDRICH®). Control mice were injected with saline alone. The mice were sacrificed in a CO2 chamber 3 hours post-infection/inoculation, and the peritoneal fluid and membrane samples were harvested. Briefly, the abdomen was disinfected and opened in the midline without injuring the muscle. The peritoneal cavity was lavaged with sterile saline solution (1 mL) and analyzed for in vivo NET formation, bacteriology, and leukocyte accumulation. NETs in the peritoneal fluid were qualitatively and quantitatively analyzed using live cell imaging with confocal microscopy and NET-associated histone H3 release assays. NETs on the serosal surface of the peritoneal membrane were assessed quantitatively using live cell imaging, followed by standardized grid analysis of five randomly selected high-power visual fields per tissue sample (IMAGEJ™ software, NIH). Peritoneal bacterial colony forming unit (cfu) counts were quantified by permeabilizing all recovered leukocytes with 0.1% Triton X-100 for 10 minutes and performing serial dilutions and bacterial cultures on 5% sheep blood agar plates (HARDY DIAGNOSTICS™). After a 24-hour incubation, bacterial counts were determined. Total leukocyte counts in the peritoneal lavage were determined in Neubauer chambers using an optical microscope after dilution in Turk's solution (2% acetic acid). Differential leukocyte analysis was performed using a 60× oil immersion objective to assess morphology of cyto-centrifuged cells stained with May-Gruenwald-Giemsa dye. All mice were included in the final analysis.
# T1 sequence (Q9UM07 whole entry): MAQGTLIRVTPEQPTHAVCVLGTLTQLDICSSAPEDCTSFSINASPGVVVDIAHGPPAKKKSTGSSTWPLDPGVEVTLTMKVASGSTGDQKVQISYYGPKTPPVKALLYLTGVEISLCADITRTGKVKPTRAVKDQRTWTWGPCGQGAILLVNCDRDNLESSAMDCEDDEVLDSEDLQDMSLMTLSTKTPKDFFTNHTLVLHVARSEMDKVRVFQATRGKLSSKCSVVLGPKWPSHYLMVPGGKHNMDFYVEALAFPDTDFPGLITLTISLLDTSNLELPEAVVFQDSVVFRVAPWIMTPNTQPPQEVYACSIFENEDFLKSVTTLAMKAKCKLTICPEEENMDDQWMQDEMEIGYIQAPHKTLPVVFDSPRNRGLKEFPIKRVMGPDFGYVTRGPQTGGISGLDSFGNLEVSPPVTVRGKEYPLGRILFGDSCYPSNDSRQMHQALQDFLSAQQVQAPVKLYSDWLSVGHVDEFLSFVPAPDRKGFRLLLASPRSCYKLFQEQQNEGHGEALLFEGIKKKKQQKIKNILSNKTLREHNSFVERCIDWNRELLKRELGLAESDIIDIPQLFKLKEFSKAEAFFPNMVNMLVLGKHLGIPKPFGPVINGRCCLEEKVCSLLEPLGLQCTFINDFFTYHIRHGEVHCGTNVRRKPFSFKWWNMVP
Substance,phagocytosis [1],PAD4 activity [2],order of potency of inhibition of PAD4 [2],NET formation by peritoneal fluid PMNs [3],deployment of NETs on the peritoneal surface [3],number of PMNs in peritoneal fluid [3],peritoneal NET formation [3]
KFNKPFVFLMIEQNTKSPLFMGKVVNPTQ (listed as Homo sapiens) [nNIF],did not inhibit,blocked its activity,nNIF ≈CRISPP>A1ATm^358,inhibited,inhibited,trend was to greater numbers,inhibited
"M_IPPEVKFNKPFVFLMIDQNTKVPLFMGK [CRISPP, consensus peptide based on factors present in the blood of patients with cancer]",did not inhibit,inhibited,nNIF ≈CRISPP>A1ATm^358,inhibited,inhibited,greater,inhibited
